Experimental data: US20240245800A1, “HIGHLY SPECIFIC RABBIT SINGLE -DOMAIN ANTIBODIES FOR DRUG DELIVERY IN IMMUNOTHERAPY APPLICATIONS” (TECHNOPHAGE, INVESTIGAÇÃO E DESENVOLVIMENTO EM …, priority 2021, published 2024)

How the values were obtained:
LN229 cell line = assay: BEB-glioblastoma (BEB-GBM) in vitro model: LN229 viability; assay type: cell-based; set-up: dose or concentration left out as unconfirmed; details: PAN free added to apex, 24 h
Experimental: FIG. 18. Activity of liposomal drug delivery in the BEB-Glioblastoma model, wherein an in vitro BEB-GBM model was developed to mimic the complexity of drug delivery to a brain tumour. This model combined a monolayer of bEnd.3, as the BBB barrier, and the LN229 cell line at the base as the glioblastoma tumour.
FIG. 18B. PAN encapsulated RG3 and FC5 functionalized liposomes were analysed in terms of BEB translocation and delivery of PAN to a glioblastoma cell line and compared with non-functionalized unloaded liposomes (Control). […] The cytotoxic effect of PAN in LN229 was determined by adding WST-1 reagent. The values were obtained from duplicates of two independent experiments ([…]).

Experimental for bEnd.3: The integrity of the bEnd.3 was measured by determining the translocation of the FD40 fluorescent probe while LN229 viability was determined using WST-1 reagent and OD450 nm measurement following 24 h incubation, and
The in vitro BEB models were optimized based on previous studies [45]. Briefly, bEnd.3 cells were cultured in DMEM, supplemented with 10% FBS and 1% penicillin/streptomycin (Lonza, Basel, Switzerland) antibiotic solution. Cells were cultured in a humidified atmosphere of 5% CO2 at 37° C. and the medium changed every other day. […] Samples were recovered from the apex and base and fluorescence intensity was measured in a microtiter plate reader (BMG Labtech, Fluostar OPTIMA, Ortenberg, Germany) with an excitation of 485 nm and a maximum emission at 520 nm.
To study the BEB translocation efficiency of the Lip-PAN-RG3 and Lip-PAN-FC5 liposomes and subsequent drug delivery and cytotoxic activity of PAN in a glioblastoma cell line, a dual in vitro non-contact co-culture model was established with bEnd.3 and LN229 cells. […] Following the 24 h treatment, WST-1 was added to the plate, and O.D.450 nm was measured following 24 h incubation. Each data point was determined using three replicate wells and two independent experiments were carried out in different days. […] In parallel, the integrity of the BEB model was measured as described previously.

## Cc1[nH]c2ccccc2c1CCNCc1ccc(/C=C/C(=O)NO)cc1 [PAN, panobinostat]
LN229 cell line
  effect on LN229 viability in BEB-GBM model: no significant effect
bEnd.3
  effect on BEB integrity in BEB-GBM model: no significant effect
